The numbers were not newly measured in patent US20100055181A1, “CONTROLLED RELEASE DOSAGE FORMS OF ZOLPIDEM” (LUPIN LIMITED, priority 2006, published 2010), which cites them from elsewhere.

Structures are written as SMILES.

For the data set the following is noted: hypnotic action, oral, conventional forms.

Consider `Cc1ccc(-c2nc3ccc(C)cn3c2CC(=O)N(C)C)cc1` [zolpidem], for which the duration of action entry is listed as “up to 6 hours”.
